From ChEMBL document CHEMBL1152614, “Design, synthesis and evaluation of monovalent ligands for the asialoglycoprotein receptor (ASGP-R)” (Bioorg Med Chem, 2009)
pIC50: −log10 of the molar value.

Target: T1, Asialoglycoprotein receptor 1 (Homo sapiens) (UniProt P07306)
T1 sequence (whole entry): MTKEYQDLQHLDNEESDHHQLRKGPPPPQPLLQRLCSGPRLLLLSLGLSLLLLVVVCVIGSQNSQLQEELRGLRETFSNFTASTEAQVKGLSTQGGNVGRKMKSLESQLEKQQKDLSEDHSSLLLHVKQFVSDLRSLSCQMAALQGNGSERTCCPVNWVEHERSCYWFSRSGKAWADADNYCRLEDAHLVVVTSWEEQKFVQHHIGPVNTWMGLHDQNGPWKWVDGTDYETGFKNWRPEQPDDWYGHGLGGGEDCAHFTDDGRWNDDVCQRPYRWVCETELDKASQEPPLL
Experiment: Inhibition of D-GalNAc-PAA binding to human recombinant ASGPR1 carbohydrate recognition domain expressed in Escherichia coli AD494 by competitive solid-phase binding assay relative to D-GalNAc

| Structure (SMILES) | Ratio IC50 |
| --- | --- |
| O=S(=O)(Nc1ccc(OCc2cn([C@H]3CO[C@H](CO)[C@H](O)[C@@H]3O)nn2)cc1)C(F)(F)F | Insoluble |
| OC[C@H]1OC[C@H](n2cc(COc3ccccc3)nn2)[C@@H](O)[C@H]1O | 1.1 |
| CC(=O)N[C@H]1C(O)O[C@H](CO)[C@H](O)[C@@H]1O (some centres not stated) | 1 |
| OC[C@H]1OC[C@H](n2cc(COc3c(F)c(F)c(F)c(F)c3F)nn2)[C@@H](O)[C@H]1O | 1.4 |
| [N-]=[N+]=N[C@H]1CO[C@H](CO)[C@H](O)[C@@H]1O | 13.7 |

Second part, the compound after the results:

| Ratio IC50 | Structure (SMILES) |
| --- | --- |
| 0.8 | O=[N+]([O-])c1ccc(OCc2cn([C@H]3CO[C@H](CO)[C@H](O)[C@@H]3O)nn2)cc1 |
| 0.9 | CN1CCN(c2ccc(OCc3cn([C@H]4CO[C@H](CO)[C@H](O)[C@@H]4O)nn3)cc2)CC1 |
| 0.5 | N#Cc1ccc(OCc2cn([C@H]3CO[C@H](CO)[C@H](O)[C@@H]3O)nn2)cc1 |
| 8.7 | O=C(O)c1ccc(OCc2cn([C@H]3CO[C@H](CO)[C@H](O)[C@@H]3O)nn2)cc1 |

Target: not listed separately
Experiment: Inhibition of [125I]asialoorosomucoid binding to rabbit hepatic ASGPR1
Design: species or system Oryctolagus cuniculus

| pIC50 | Structure (SMILES) |
| --- | --- |
| 2.77 | OC[C@H]1O[C@@H](O)[C@H](O)[C@@H](O)[C@H]1O [b-D-GALACTOSE] |
| 1.22 | OC[C@H]1O[C@@H](O)[C@H](O)[C@@H](O)[C@@H]1O [beta-D-Glucose] |

Target: T1, Asialoglycoprotein receptor 1 (Homo sapiens)
Experiment: Inhibition of D-GalNAc binding to human recombinant ASGPR1 carbohydrate recognition domain expressed in Escherichia coli AD494 by competitive NMR binding assay relative to D-GalNAc

| relative binding affinity (RBA) | Structure (SMILES) |
| --- | --- |
| 1.9 | N#Cc1ccc(OCc2cn([C@H]3CO[C@H](CO)[C@H](O)[C@@H]3O)nn2)cc1 |
